This passage reports IC50 results from US11591355B2 (Peloton Therapeutics, Inc., priority 2017, dated 2023).

SMILES strings stand for the structures.

Test [1] concerns the target T1, CD73 on U138 human neuroglioma cells (Homo sapiens, UniProt P21589).
T1 construct: U138 cells were obtained from ATCC and cultured in DMEM with 10% FBS; host or cells: U138 human neuroglioma cells
T1 sequence (P21589 27-549): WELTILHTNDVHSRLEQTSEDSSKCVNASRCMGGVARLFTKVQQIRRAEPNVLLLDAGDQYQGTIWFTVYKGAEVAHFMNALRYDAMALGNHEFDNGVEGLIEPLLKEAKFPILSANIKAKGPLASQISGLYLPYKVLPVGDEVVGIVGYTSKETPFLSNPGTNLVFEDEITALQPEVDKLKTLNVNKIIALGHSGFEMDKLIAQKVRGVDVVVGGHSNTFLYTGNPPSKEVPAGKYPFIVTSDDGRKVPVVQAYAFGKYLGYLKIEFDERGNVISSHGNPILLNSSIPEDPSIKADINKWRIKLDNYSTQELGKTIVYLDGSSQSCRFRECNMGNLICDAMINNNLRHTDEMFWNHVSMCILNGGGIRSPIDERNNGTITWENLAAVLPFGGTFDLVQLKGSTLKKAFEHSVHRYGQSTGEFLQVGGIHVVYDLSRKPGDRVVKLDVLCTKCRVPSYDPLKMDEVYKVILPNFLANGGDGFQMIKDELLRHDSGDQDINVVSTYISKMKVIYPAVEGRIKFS
In words: CD73 Cell-Based Assay. The conditions noted are these: U138 cells, AMP substrate, 2 hours at 37° C., inorganic phosphate by malachite green. Summed up: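 Whole U138 cells washed free of phosphate were incubated with 200 μM AMP (mixture concentration before equal-volume addition) plus compound in HEPES-buffered saline, pH 7.4, for 2 h at 37 °C, 5% CO2. Adenosine-forming activity read as inorganic phosphate released into supernatant by malachite green.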

The next test addresses T2, Human CD73 (Homo sapiens, UniProt P21589).
T2 construct: purchased R&D Systems; host or cells: CHO cells
T2 sequence (P21589 27-549): T1 sequence (P21589 27-549)
Description: CD73 Enzyme Assay. The class given is biochemical. The conditions noted are these: 0.25 nM hCD73, 25 μM AMP, kinetic read at 360 nm; read-out: CD73 Enzyme Assay IC50.

By IC50 is commonly meant the concentration that gives 50% inhibition. On to `C[C@H](Nc1nc(Cl)nc2c1ccn2[C@@H]1O[C@H](COCP(=O)(O)O)[C@@H](O)[C@H]1O)c1ccccc1F` [Compound 79, [(2R,3S,4R,5R)-5-[2-chloro-4-[[(1S)-1-(2-fluorophenyl)ethyl]-amino]pyrrolo[2,3-d]-pyrimidin-7-yl]-3,4-dihydroxy-tetrahydro-furan-2-yl]methoxy-methylphosphonic acid], for which the IC50 is 0.01 to 0.1 µM in test [1] and less than 0.01 µM on Human CD73.
Taken in the same sequence, the figures for `C[C@@H](Nc1nc(C#N)nc2c1ccn2[C@@H]1O[C@H](COCP(=O)(O)O)[C@@H](O)[C@H]1O)c1ccc(C#N)cc1` [Compound 95, [(2R,3S,4R,5R)-5-[2-cyano-4-[[(1R)-1-(4-cyanophenyl)ethyl]-amino]pyrrolo[2,3-d]-pyrimidin-7-yl]-3,4-dihydroxy-tetrahydro-furan-2-yl]methoxy-methylphosphonic acid] were 0.01 to 0.1 µM and 0.01 to 0.1 µM.
Consider `C[C@H](Nc1nc(Cl)nc2c1ccn2[C@@H]1O[C@H](COCP(=O)(O)O)[C@@H](O)[C@H]1O)c1ccc(C(F)(F)F)cc1` [Compound 106, [(2R,3S,4R,5R)-5-[2-chloro-4-[[(1S)-1-[4-(trifluoromethyl)-phenyl]ethyl]amino]-pyrrolo[2,3-d]-pyrimidin-7-yl]-3,4-dihydroxy-tetrahydro-furan-2-yl]methoxy-methylphosphonic acid], for which the IC50 (in test [1]; at Human CD73) was less than 0.01 µM throughout.
Take `C[C@H](c1ccccc1)N(C)c1nc(Cl)nc2c1ccn2[C@@H]1O[C@H](CS(=O)(=O)CP(=O)(O)O)[C@@H](O)[C@H]1O` [Compound 157, [(2S,3S,4R,5R)-5-[2-chloro-4-[methyl-[(1R)-1-phenylethyl]-amino]pyrrolo[2,3-d]-pyrimidin-7-yl]-3,4-dihydroxy-tetrahydro-furan-2-yl]methyl-sulfonylmethylphos-phonic acid]: the IC50 (in test [1]; on Human CD73) was less than 0.01 µM in each case.
Consider `C[C@@H](Nc1nc(Cl)nc2c1ccn2[C@@H]1O[C@H](CS(=O)(=O)CP(=O)(O)O)[C@@H](O)[C@H]1O)c1ccc(Cl)cc1` [Compound 179, [(2S,3S,4R,5R)-5-[2-chloro-4-[[(1R)-1-(4-chlorophenyl)ethyl]-amino]pyrrolo[2,3-d]-pyrimidin-7-yl]-3,4-dihydroxy-tetrahydro-furan-2-yl]methyl-sulfonylmethylphos-phonic acid], for which the IC50 (in test [1]; on Human CD73) was less than 0.01 µM in each case.
As to `O=P(O)(O)CS(=O)(=O)C[C@H]1O[C@@H](n2ccc3c(NC4CC5CC5C4)nc(Cl)nc32)[C@H](O)[C@@H]1O` (stereo partly drawn) [Compound 159, [(2S,3S,4R,5R)-5-[4-(3-bicyclo[3.1.0]-hexanylamino)-2-chloro-pyrrolo[2,3-d]-pyrimidin-7-yl]-3,4-dihydroxy-tetrahydro-furan-2-yl]methyl-sulfonylmethylphos-phonic acid], the IC50 (in test [1]; at Human CD73) was less than 0.01 µM throughout.
With `O=P(O)(O)CS(=O)(=O)C[C@H]1O[C@@H](n2ccc3c(NC4CCCCC4)nc(Cl)nc32)[C@H](O)[C@@H]1O` [Compound 174, [(2S,3S,4R,5R)-5-[2-chloro-4-(cyclohexyl-amino)pyrrolo[2,3-d]-pyrimidin-7-yl]-3,4-dihydroxy-tetrahydro-furan-2-yl]methyl-sulfonylmethylphos-phonic acid], the IC50 (in test [1]; at Human CD73) was less than 0.01 µM throughout.
In the case of `CC(C)[C@@H](Nc1nc(Cl)nc2c1ccn2[C@@H]1O[C@H](COCP(=O)(O)O)[C@@H](O)[C@H]1O)c1ccccc1` [Compound 78], the IC50 is less than 0.01 µM in test [1] and 0.01 to 0.1 µM at Human CD73.
In the same order, the values of `C[C@H](Nc1nc(C#N)nc2c1ccn2[C@@H]1O[C@H](COCP(=O)(O)O)[C@@H](O)[C@H]1O)c1ccccc1` [Compound 67, [(2R,3S,4R,5R)-5-[2-cyano-4-[[(1S)-1-phenylethyl]amino]-pyrrolo[2,3-d]-pyrimidin-7-yl]-3,4-dihydroxy-tetrahydro-furan-2-yl]methoxy-methylphosphonic acid] are less than 0.01 µM and 0.01 to 0.1 µM.
Taken in the same sequence, the figures for `C[C@@H](Nc1nc(C#N)nc2c1ccn2[C@@H]1O[C@H](COCP(=O)(O)O)[C@@H](O)[C@H]1O)c1ccccc1F` [Compound 88, [(2R,3S,4R,5R)-5-[2-cyano-4-[[(1R)-1-(2-fluorophenyl)ethyl]-amino]pyrrolo[2,3-d]-pyrimidin-7-yl]-3,4-dihydroxy-tetrahydro-furan-2-yl]methoxy-methylphosphonic acid] were less than 0.01 µM and less than 0.01 µM.
Turning to `CC(C)(O)C#Cc1nc(NC2CCCC2)c2ccn([C@@H]3O[C@H](COCP(=O)(O)O)[C@@H](O)[C@H]3O)c2n1` [Compound 272, [(2R,3S,4R,5R)-5-[4-(cyclopentylamino)-2-(3-hydroxy-3-methyl-but-1-ynyl)pyrrolo[2,3-d]pyrimidin-7-yl]-3,4-dihydroxy-tetrahydro-furan-2-yl]methoxy-methylphosphonic acid], the results for the IC50 (in test [1]; on Human CD73) were less than 0.01 µM and 0.01 to 0.1 µM, respectively.
With `C[C@@H](Nc1nc(Cl)nc2c1ccn2C1O[C@H](COCP(=O)(O)O)[C@@H](O)[C@H]1O)c1ccc(C2CC2)cc1` (stereo partly drawn) [Compound 197, [(2R,3S,4R,5R)-5-[2-chloro-4-[[(1R)-1-(4-cyclopropylphenyl)-ethyl]amino]pyrrolo-[2,3-d]pyrimidin-7-yl]-3,4-dihydroxy-tetra-hydrofuran-2-yl]-methoxymethylphos-phonic acid], the IC50 (in test [1]; on Human CD73) was less than 0.01 µM each time.
Consider `O=P(O)(O)COC[C@H]1O[C@@H](n2cnc3c(NC4CCc5ccccc54)ncnc32)[C@H](O)[C@@H]1O` (stereo partly shown) [Compound 52], for which the concentration for half-maximal inhibition (IC50) (in test [1]; on Human CD73) was 0.1 to 1 µM each time.
Regarding `C[C@@H](Nc1nc(C#N)nc2c1ccn2[C@@H]1O[C@H](COCP(=O)(O)O)[C@@H](O)[C@H]1O)c1ccc(F)cc1` [Compound 73, [(2R,3S,4R,5R)-5-[2-cyano-4-[[(1R)-1-(4-fluorophenyl)ethyl]-amino]pyrrolo[2,3-d]-pyrimidin-7-yl]-3,4-dihydroxy-tetrahydro-furan-2-yl]methoxy-methylphosphonic acid], the IC50 (in test [1]; on Human CD73) was less than 0.01 µM throughout.
Turning to `O=P(O)(O)COC[C@H]1O[C@@H](n2cnc3c(N4CCCC4)ncnc32)[C@H](O)[C@@H]1O` [Compound 43, [(2R,3S,4R,5R)-3,4-dihydroxy-5-(6-pyrrolidin-1-ylpurin-9-yl)tetrahydrofuran-2-yl]methoxymethyl-phosphonic acid], the IC50 (in test [1]; on Human CD73) was 0.1 to 1 µM throughout.
`C[C@@H](O)C#Cc1nc(NC2CCCC2)c2ccn([C@@H]3O[C@H](COCP(=O)(O)O)[C@@H](O)[C@H]3O)c2n1` [Compound 267, [(2R,3S,4R,5R)-5-[4-(cyclopentylamino)-2-[(3R)-3-hydroxybut-1-ynyl]pyrrolo[2,3-d]-pyrimidin-7-yl]-3,4-dihydroxy-tetrahydro-furan-2-yl]methoxy-methylphosphonic acid]: the IC50 (in test [1]; at Human CD73) was less than 0.01 µM each time.
Regarding `O=P(O)(O)CS(=O)(=O)C[C@H]1O[C@@H](n2ccc3c(N4CC5CC5C4)nc(Cl)nc32)[C@H](O)[C@@H]1O` (stereo partly drawn) [Compound 175, [(2S,3S,4R,5R)-5-[4-(3-azabicyclo[3.1.0]-hexan-3-yl)-2-chloro-pyrrolo[2,3-d]-pyrimidin-7-yl]-3,4-dihydroxy-tetrahydro-furan-2-yl]methyl-sulfonylmethylphos-phonic acid], the IC50 (in test [1]; on Human CD73) was 0.01 to 0.1 µM each time.
In the case of `CC#Cc1nc(NC2CCCC2)c2ccn([C@@H]3O[C@H](COCP(=O)(O)O)[C@@H](O)[C@H]3O)c2n1` [Compound 266, [(2R,3S,4R,5R)-5-[4-(cyclopentylamino)-2-prop-1-ynyl-pyrrolo-[2,3-d]pyrimidin-7-yl]-3,4-dihydroxy-tetrahydrofuran-2-yl]-methoxymethylphos-phonic acid], the IC50 (in test [1]; at Human CD73) was less than 0.01 µM throughout.
As to `O=P(O)(O)COC[C@H]1O[C@@H](n2ccc3c(N4CC5CCCC5C4)nc(Cl)nc32)[C@H](O)[C@@H]1O` (stereo partly drawn) [Compound 103, [(2R,3S,4R,5R)-5-[4-(3,3a,4,5,6,6a-hexa-hydro-1H-cyclopenta-[c]pyrrol-2-yl)-2-chloro-pyrrolo[2,3-d]-pyrimidin-7-yl]-3,4-dihydroxy-tetrahydro-furan-2-yl]methoxy-methylphosphonic acid], the IC50 (in test [1]; on Human CD73) was less than 0.01 µM in each case.
For `N#Cc1nc(NC2CCC2)c2cnn([C@@H]3O[C@H](CS(=O)(=O)CP(=O)(O)O)[C@@H](O)[C@H]3O)c2n1` [Compound 308, [(2S,3S,4R,5R)-5-[6-cyano-4-(cyclobutyl-amino)pyrazolo[3,4-d]-pyrimidin-1-yl]-3,4-dihydroxy-tetrahydro-furan-2-yl]methyl-sulfonylmethylphos-phonic acid], the IC50 (in test [1]; at Human CD73) was less than 0.01 µM throughout.
